Source: BigSolDB 2.1

Cc1cc(=O)oc2cc(N)ccc12
solubility (mole fraction) (in DMF, 278.15 K): 0.0579
solubility (mole fraction) (in DMF, 283.15 K): 0.0725
solubility (mole fraction) (in DMF, 288.15 K): 0.0902
solubility (mole fraction) (in DMF, 293.15 K): 0.108
solubility (mole fraction) (in DMF, 298.15 K): 0.131
solubility (mole fraction) (in DMF, 303.15 K): 0.156
solubility (mole fraction) (in DMF, 308.15 K): 0.189
solubility (mole fraction) (in DMF, 313.15 K): 0.219
solubility (mole fraction) (in DMF, 318.15 K): 0.251
solubility (mole fraction) (in DMF, 323.15 K): 0.292
solubility (mole fraction) (in ethanol, 278.15 K): 0.000941
solubility (mole fraction) (in ethanol, 283.15 K): 0.00101
solubility (mole fraction) (in ethanol, 288.15 K): 0.00117
solubility (mole fraction) (in ethanol, 293.15 K): 0.00123
solubility (mole fraction) (in ethanol, 298.15 K): 0.00134
solubility (mole fraction) (in ethanol, 303.15 K): 0.00161
solubility (mole fraction) (in ethanol, 308.15 K): 0.00177
solubility (mole fraction) (in ethanol, 313.15 K): 0.00214
solubility (mole fraction) (in ethanol, 318.15 K): 0.00233
solubility (mole fraction) (in ethanol, 323.15 K): 0.00262
solubility (mole fraction) (in ethylene glycol, 278.15 K): 0.000384
solubility (mole fraction) (in ethylene glycol, 283.15 K): 0.000432
solubility (mole fraction) (in ethylene glycol, 288.15 K): 0.000531
solubility (mole fraction) (in ethylene glycol, 293.15 K): 0.000663
solubility (mole fraction) (in ethylene glycol, 298.15 K): 0.000812
solubility (mole fraction) (in ethylene glycol, 303.15 K): 0.000974
solubility (mole fraction) (in ethylene glycol, 308.15 K): 0.00112
solubility (mole fraction) (in ethylene glycol, 313.15 K): 0.0013
solubility (mole fraction) (in ethylene glycol, 318.15 K): 0.00145
solubility (mole fraction) (in ethylene glycol, 323.15 K): 0.00163
solubility (mole fraction) (in isopropanol, 278.15 K): 0.00103
solubility (mole fraction) (in isopropanol, 283.15 K): 0.00114
solubility (mole fraction) (in isopropanol, 288.15 K): 0.00127
solubility (mole fraction) (in isopropanol, 293.15 K): 0.00152
solubility (mole fraction) (in isopropanol, 298.15 K): 0.00173
solubility (mole fraction) (in isopropanol, 303.15 K): 0.00188
solubility (mole fraction) (in isopropanol, 308.15 K): 0.00208
solubility (mole fraction) (in isopropanol, 313.15 K): 0.00237
solubility (mole fraction) (in isopropanol, 318.15 K): 0.00261
solubility (mole fraction) (in isopropanol, 323.15 K): 0.00294
solubility (mole fraction) (in water, 278.15 K): 1.07e-05
solubility (mole fraction) (in water, 283.15 K): 1.38e-05
solubility (mole fraction) (in water, 288.15 K): 1.74e-05
solubility (mole fraction) (in water, 293.15 K): 2.18e-05
solubility (mole fraction) (in water, 298.15 K): 2.75e-05
solubility (mole fraction) (in water, 303.15 K): 3.41e-05
solubility (mole fraction) (in water, 308.15 K): 4.18e-05
solubility (mole fraction) (in water, 313.15 K): 5.14e-05
solubility (mole fraction) (in water, 318.15 K): 6.27e-05
solubility (mole fraction) (in water, 323.15 K): 7.57e-05
